PMC5652740, “Inhibition of HIV-1 infection in humanized mice and metabolic stability of protein phosphatase-1-targeting small molecule 1E7-03” (Oncotarget, 2017)

Legend:
[1] = 1E7-03 degradation in ferret plasma; assay type: in vitro ADME; details: 37°C
Procedure: (§1) 1E7-03 dissolved in DMSO (10 mM stock solution) was mixed with mouse plasma (Sigma-Aldrich), guinea pig plasma (Sigma-Aldrich), ferret plasma (BioreclamationIVT), monkey plasma (courtesy of Binhua Ling, PhD, Tulane University) and human plasma (collected from heathy volunteer by the Center for Sickle Cell Disease at Howard University) to the final concentration of 10 μM and incubated at 37°C. Aliquots were collected at different time points for up to 24 hrs. The resulting sample (60 μl) was mixed with 240 μl of cold acetone, vortexed for 2 min, kept at –20°C for 30 min, and then the precipitated protein was removed by centrifugation at 13,000 × g for 5 min. The supernatant was transferred to a clean test tube and evaporated to dryness using a SpeedVac concentrator. The residue reconstituted in 60 μl of acetonitrile for LC/FT-MS analysis. All experiments were run parallel in triplicates.

[2] = 1E7-03 degradation in guinea pig plasma; assay type: in vitro ADME; details: 10 μM, 37°C, 4 hrs
Procedure: as §1

[3] = 1E7-03 degradation in monkey plasma; assay type: in vitro ADME; details: 37°C
Procedure: as §1

[4] = test system: PP1 regulatory subunit Sds22; experiment: Label free quantitative proteomics of HIV-1 infected CEM T cells; assay type: cell-based; details: 10 μM, SIEVE quantification
Procedure: CEM T cells were infected with VSVG-pseudotyped pNL4-3.Luc.R-E-virus (HIV-1-LUC-G) and cultured in 100 mm culture plates (1.25 × 10^6 cells/ml) containing 10 ml of supplemented RPMI media at 37°C and 5% CO2. The cells were treated with 10 μM of 1E7-03 or vehicle (DMSO) and incubated overnight. Cells were collected and washed three times with PBS. To obtain cell lysates, the cells were suspended in 1 ml cold whole cell lysis buffer (50 mM Tris-HCl, pH 7.5, 0.5 M NaCl, 1% NP-40, 0.1% SDS) with protease and phosphatase inhibitors (P044-1ML, Sigma Aldrich). The cytosolic protein fraction was isolated by centrifugation at 13,000xg for 30 min at 4 °C to remove cellular debris. […]
Tryptic peptides were purified by Pierce™ Graphite Spin Columns following manufacturer's instructions, resuspended in water with 0.1% formic acid (v/v) and analyzed by an LTQ Orbitrap XL mass spectrometer (Thermo Fisher Scientific) coupled to a Prominence Nano LC (Shimadzu) using the Xcalibur version 2.7.0 (Thermo Scientific). […]
LC-MS/MS raw data were searched by Proteome Discoverer 1.4 using Sequest search engine (Thermo Fisher Scientific), against the Uniprot Human database (6/10/2016, 135431 sequences) at a false discovery cut off ≤1%. […] The label-free quantification of peptides eluting between 10 and 80 min was performed with SIEVE 2.1 software (Thermo Scientific). […]

[5] = Stability of 1E7-03 in cell culture media and PBS; assay type: physicochemical
Procedure: CEM T cells were seeded in 24-well plates (200,000 cells/well). On the next day cells were treated with 10 μM 1E7-03. Media (100 μl) was collected at different time points during 48 hrs and total protein was precipitated by 400 μl of cold acetone and centrifuged at 13,000 × g for 5 min. The supernatant was collected and evaporated to dryness using a SpeedVac concentrator. The dry pellet was reconstituted in 100 μl of acetonitrile for LC/FT-MS analysis. In addition, 1E7-03 (10 μM) was incubated at 37°C in serum-free media and complete media without cell treatment. Media of 100 μl was collected after 24 hrs of incubation. The stabilities of 1E7-03 (10 μM) at phosphate buffered saline (PBS) and PBS with the addition of 10% bovine serum albumin were also investigated at 37°C incubation. Samples (100 μl) were collected at different time points up to 24 hrs. All samples were prepared by the same above-mentioned procedure for LC/FT-MS analysis.

CEM T cells = experiment: Cytotoxicity with calcein-AM; assay type: cell-based; details: in words
Procedure: To assess cytotoxicity with calcein, media was removed and the cells washed with PBS in order to remove serum esterase activity that may cause an increase in fluorescence through the hydrolysis of calcein-AM. Cells were then supplemented with 0.2 μM calcein-AM (Molecular Probes, Invitrogen) for 10 min at 37°C. Fluorescence was measured using the luminescence spectrometer described above implementing 495 nm excitation and 515 nm emission filters.

CCNC(=O)NC(=O)C(C)OC(=O)c1c2c(nc3ccccc13)/C(=C/c1ccc(OC)c(OC)c1)CC2 (stereo not shown) [1E7-03]
remaining at 24 h, 10 µM [1]: > 50% | % of compound degraded [2]: about 80% | remaining at 24 h, 10 µM [3]: > 50% | Sds22 Ratio 1E7-03/Control [4]: 0.804 | α-tubulin Ratio 1E7-03/Control [4]: 0.936 | Peak Area (%), Complete media ([5]; 10 μM 1E7-03 in media with 10% FBS, 37°C, 24 hrs, 1E7-03 remaining and DPs formed): 98.6% | Peak Area (%), FBS free media ([5]; 10 μM 1E7-03 in serum free media, 37°C, 24 hrs, 1E7-03 remaining and DPs formed): 7% | stability in complete media ([5]; 10 μM, 37°C, 48 hrs, in words): remained stable and did not undergo degradation | remaining at 4 h, 10 µM ([5]; PBS with 10% bovine serum albumin, 4 hrs, read-out: % remaining intact in PBS with 10% BSA): 75% | remaining at 24 h, 10 µM ([5]; PBS with 10% bovine serum albumin, 24 hrs, read-out: % remaining in PBS with 10% BSA): > 50% | % of compound degraded in PBS ([5]; PBS, 37°C, 4 hrs): over 80% | remaining at 48 h, 10 µM ([5]; human, culture media of CEM T cells, 48 hrs of incubation, read-out: % remained intact in cell culture media): > 90%

COc1ccc(/C=C2\CCCc3c2nc2ccccc2c3C(=O)OC(C)C(=O)OC(C)(C)C)cc1OC (stereo not shown) [DP1-07]
toxicity in CEM T cells compared to 1E7-03 (CEM T cells): reduced toxicity
